Each structure is given as a SMILES string.

The experiment has as its target T1, glucocerebrosidase (Homo sapiens, UniProt P04062).
T1 sequence (P04062 40-536): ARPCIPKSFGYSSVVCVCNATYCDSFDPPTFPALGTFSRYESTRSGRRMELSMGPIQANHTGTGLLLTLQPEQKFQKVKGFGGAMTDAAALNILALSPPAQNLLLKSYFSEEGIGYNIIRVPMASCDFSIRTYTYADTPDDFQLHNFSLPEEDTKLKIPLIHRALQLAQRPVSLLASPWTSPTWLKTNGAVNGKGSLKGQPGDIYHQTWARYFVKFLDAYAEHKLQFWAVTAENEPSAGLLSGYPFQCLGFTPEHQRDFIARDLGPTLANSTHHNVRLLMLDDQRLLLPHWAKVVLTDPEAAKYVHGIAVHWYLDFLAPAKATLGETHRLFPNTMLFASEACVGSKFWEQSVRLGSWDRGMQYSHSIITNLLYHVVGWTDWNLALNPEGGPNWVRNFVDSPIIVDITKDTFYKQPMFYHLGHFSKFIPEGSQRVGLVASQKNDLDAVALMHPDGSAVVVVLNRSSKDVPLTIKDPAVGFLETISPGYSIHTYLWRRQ
Description: Glucocerebrosidase activity assay with blue substrate (4MU-Glc). In kind it is biochemical. The procedure:
Example 2—Glucocerebrosidase Activity Assay with Blue Substrate
The compounds in DMSO solution 0.5 μL/well were transferred to a black 96-well plate (the final titration was 24 nM to 50 μM, 12 concentrations, 2× dilution). 33.5 μL enzyme solution (7.5 nM final concentration) was transferred to the wells. After 5 min of incubation at room temperature, the enzyme reaction was initiated by the addition of 33 μL/well blue substrate. Final concentration of the blue substrate (4MU-Glc) was 1.5 mM. The blue substrate reaction was terminated by the addition of 33 μL/well stop solution (1 M NaOH and 1 M glycine mixture, pH 10) after 30 min of incubation at 37° C. The fluorescence was then measured in the Biotek Synergy H1 multi-mode plate reader with Ex=365 nm and Em=440 nm.
Additional compounds were synthesized and tested for glucocerebrosidase modulatory activity as described in Example 1 and Example 2.

Setting [1] is: Table 1, 7.5 nM enzyme, 1.5 mM 4MU-Glc, 30 min at 37° C.
The mark [2] stands for this setting: Table 1, 7.5 nM enzyme, 1.5 mM 4MU-Glc, 30 min at 37° C., titration 24 nM to 50 μM.
[3] abbreviates: Table 2, additional compounds, tested as described in Example 2.

As to `COC(=O)Cc1ccc(CNc2nc(-c3cccnc3)nc3ccccc23)cc1` [Compound 61], under setting [1], the Emax is 127%. In addition, the AC50 under setting [2] is 2.51 µM.
With `CN(CCOc1ccccc1)c1nc(-c2cccnc2)nc2ncccc12` [Compound 62], the AC50 under setting [2] was 7.08 µM.
Turning to `CN(CCOc1ccccc1)c1nc(-c2cccnc2)nc2[nH]ccc12` [Compound 63], the maximum response (Emax) under setting [1] is 461%. In addition, the AC50 under setting [2] was 3.98 µM.
The like results for `Cc1csc2c(N(C)CCOc3ccccc3)nc(-c3cccnc3)nc12` [Compound 64] were, in that order, 222% and 2.51 µM.
On to `CN(CCOc1ccccc1)c1cc(-c2ccccc2)nc(-c2cccnc2)n1` [Compound 65], for which the maximum response (Emax) under setting [1] amounted to 144%. For the same compound, under setting [2], the AC50 amounted to 1 µM.
The like results for `CN(CCOc1ccccc1)c1nc(Nc2ccccc2)nc2ccccc12` [Compound 66] were, in that order, 141% and 7.08 µM.
As for `CN(CCOc1ccccc1)c1nc(-c2cccnc2)nc2ccoc12` [Compound 67], the Emax under setting [1] was 787%. In addition, the AC50 under setting [2] came out at 10 µM.
As for `CN(CCOc1ccccc1)c1nc(-c2cccnc2)nc2c1SCC2` [Compound 68], the Emax under setting [1] turned out to be 327%. The half-maximal activity concentration (AC50) under setting [2] was found to be 12.6 µM.
`CN(CCOc1ccccc1)c1nc(-c2cncc(F)c2)nc2ncccc12` [Compound 69]: the half-maximal activity concentration (AC50) under setting [2] came out at 7.1 µM.
With `Cc1nn(Cc2ccccc2)c(C)c1Nc1nc(-c2cccnc2)nc2ccccc12` [Compound 70], under setting [1], the maximum response (Emax) is 191%. The half-maximal activity concentration (AC50) under setting [2] was determined as 8.91 µM.
Take `CN(CCOc1ccccc1)c1cc(N2CCOCC2)nc(-c2cccnc2)n1` [Compound 71]: the Emax under setting [1] is 346%. Further, the concentration at half-maximal activity (AC50) under setting [2] is 15.8 µM.
With `CN(CCOc1ccccc1)c1nc(-c2cccnc2)nc2c1ccn2C` [Compound 72], the Emax under setting [1] worked out at 927%. Also, the AC50 under setting [2] was found to be 6.31 µM.
For the compound `CN(CCOc1ccccc1)c1nc(-c2cccnc2)nc2c1COC2` [Compound 73], under setting [1], the Emax was determined as 330%. Besides, the half-maximal activity concentration (AC50) under setting [2] is 5.62 µM.
In the same order, the values of `Cc1nn(Cc2ccccc2)c(C)c1N(C)c1nc(-c2cccnc2)nc2ccccc12` [Compound 74] are 194% and 10 µM.
As for `CN(CC1CCc2ccccc2C1)c1nc(-c2cccnc2)nc2ccccc12` (centres unmarked) [Compound 75], the Emax under setting [1] came to 115%. Further, under setting [2], the concentration at half-maximal activity (AC50) was 2 µM.
In the same order, the values of `COC(=O)c1ccc(OCCN(C)c2nc(-c3cccnc3)nc3ccccc23)cc1` [Compound 76] are 255% and 4.47 µM.
In the same order, the values of `COC(=O)c1cccc(OCCN(C)c2nc(-c3cccnc3)nc3ccccc23)c1` [Compound 77] are 432% and 5.01 µM.
The like results for `CN(CCOc1ccccc1)c1nc(-c2cccnc2)nc2c1cnn2C` [Compound 78] were, in that order, 425% and 1.56 µM.
For `CN(CCOc1ccc(C(=O)O)cc1)c1nc(-c2cccnc2)nc2ccccc12` [Compound 79], the maximal effect (Emax) under setting [1] was determined as 252%. Under setting [2], the concentration at half-maximal activity (AC50) was determined as 12.6 µM.
For `CN(CCOc1cccc(C(=O)O)c1)c1nc(-c2cccnc2)nc2ccccc12` [Compound 80], under setting [1], the Emax came out at 442%. In addition, the AC50 under setting [2] worked out at 15.8 µM.
On to `CN(CCOc1ccccc1)c1nc(-c2ccnc3ccccc23)nc2ccccc12` [Compound 81], for which the maximal effect (Emax) under setting [1] came out at 280%. Also, the AC50 under setting [2] turned out to be 3.16 µM.
On to `CN(CC1Cc2ccccc2O1)c1nc(-c2cccnc2)nc2ccccc12` (centres unmarked) [Compound 82], for which the Emax under setting [1] was determined as 501%. For the same compound, the AC50 under setting [2] was determined as 1.12 µM.
In the same order, the values of `CN(CCOc1ccc(C(=O)ON2C(=O)CCC2=O)cc1)c1nc(-c2cccnc2)nc2ccccc12` [Compound 83] are 230% and 3.98 µM.
In the same order, the values of `CN(CCOc1cccc(C(=O)ON2C(=O)CCC2=O)c1)c1nc(-c2cccnc2)nc2ccccc12` [Compound 84] are 457% and 4.47 µM.
In the same order, the values of `CN(CCOc1ccccc1)c1cc(-c2cccnc2)nc(-c2cccnc2)n1` [Compound 85] are 460% and 2.24 µM.
On to `CN(CCOc1cccc(CCO)c1)c1nc(-c2cccnc2)nc2ccccc12` [Compound 86], for which, under setting [2], the concentration at half-maximal activity (AC50) was determined as 15.8 µM.
On to `Cn1ncc2c(NCC3CCc4ccccc4O3)nc(-c3cccnc3)nc21` (centres unmarked) [Compound 87], for which the Emax under setting [1] was found to be 173%. The concentration at half-maximal activity (AC50) under setting [2] was determined as 10 µM.
In the same order, the values of `CN(c1nc(-c2cccnc2)nc2c1cnn2C)C1CCCN(c2ccccc2)C1` (centres unmarked) [Compound 88] are 142% and 5.01 µM.
The like results for `CN(Cc1cc2ccccc2o1)c1nc(-c2cccnc2)nc2c1cnn2C` [Compound 89] were, in that order, 660% and 4.47 µM.
The like results for `COC(=O)Cc1cccc(OCCN(C)c2nc(-c3cccnc3)nc3c2cnn3C)c1` [Compound 90] were, in that order, 908% and 7.94 µM.
Turning to `Cn1ncc2c(NCCOC3CCCCC3)nc(-c3cccnc3)nc21` [Compound 91], under setting [1], the Emax is 322%. Moreover, under setting [2], the half-maximal activity concentration (AC50) came out at 44.7 µM.
In the same order, the values of `CN(CCOc1ccccc1)c1nc(-c2cccnc2)nc2c1ncn2C` [Compound 92] are 790% and 35.5 µM.
In the same order, the values of `CN(CCOc1ccccc1)c1nc(-c2cccnc2)nc2scnc12` [Compound 93] are 270% and 4.47 µM.
As to `COC(=O)Cc1cccc(OCCN(C)c2nc(-c3cccnc3)nc3ncccc23)c1` [Compound 94], the AC50 under setting [2] amounted to 14.1 µM.
For `COC(=O)Cc1cccc(OCCN(C)c2nc(-c3cccnc3)nc3ccccc23)c1` [Compound 95], under setting [1], the maximum response (Emax) was determined as 721%. Under setting [2], the AC50 was 4.47 µM.
The like results for `CN(CCOc1cccc(CC(=O)ON2C(=O)CCC2=O)c1)c1nc(-c2cccnc2)nc2c1cnn2C` [Compound 96] were, in that order, 583% and 7.94 µM.
As for `CN(CCOc1ccccc1)c1nc(-c2cccnc2)nn2cccc12` [Compound 97], the maximum response (Emax) under setting [1] came to 531%. For the same compound, under setting [2], the AC50 came out at 3.16 µM.
For `CC(C)n1ncc2c(N(C)CCOc3ccccc3)nc(-c3cccnc3)nc21` [Compound 98], the maximum response (Emax) under setting [1] worked out at 140%. For the same compound, the AC50 under setting [2] was 28.2 µM.
In the case of `CCn1ncc2c(N(C)CCOc3ccccc3)nc(-c3cccnc3)nc21` [Compound 99], under setting [1], the Emax is 208%. Moreover, the AC50 under setting [2] is 0.71 µM.
The like results for `Cn1ncc2c(N3CC[C@@H](Oc4ccccc4)C3)nc(-c3cccnc3)nc21` [Compound 100] were, in that order, 833% and 5.62 µM.
In the same order, the values of `CN(CCN1CCc2ccccc2C1)c1nc(-c2cccnc2)nc2c1cnn2C` [Compound 101] are 197% and 79.4 µM.
Consider `CN(CCOC1CCCCC1)c1nc(-c2cccnc2)nc2c1cnn2C` [Compound 102], for which the AC50 under setting [2] worked out at 25.1 µM.
Regarding `CN(CCOc1ccc2c(c1)CCCC2)c1nc(-c2cccnc2)nc2c1cnn2C` [Compound 103], the maximal response (Emax) under setting [1] is 371%. The AC50 under setting [2] was found to be 3.16 µM.
Take `CN(Cc1ccc2ccccc2n1)c1nc(-c2cccnc2)nc2c1cnn2C` [Compound 104]: the maximum response (Emax) under setting [1] was 425%. Besides, the concentration at half-maximal activity (AC50) under setting [2] came out at 6.31 µM.
`CN(CC1CCc2ccccc2O1)c1nc(-c2cccnc2)nc2c1cnn2C` (centres unmarked) [Compound 105]: under setting [1], the maximum response (Emax) stood at 662%. Moreover, the AC50 under setting [2] is 6.31 µM.
With `CCn1ncc2c(N(C)C[C@H]3COc4ccccc4O3)nc(-c3cccnc3)nc21` [Compound 106], the maximum response (Emax) under setting [1] is 250%. Also, under setting [2], the half-maximal activity concentration (AC50) was determined as 1.12 µM.
As to `CCn1ncc2c(N(C)Cc3ccc4c(c3)OCO4)nc(-c3cccnc3)nc21` [Compound 108], the Emax under setting [1] was found to be 400%. The AC50 under setting [2] was found to be 7.08 µM.
The like results for `CN(Cc1ccc2ncccc2c1)c1nc(-c2cccnc2)nc2c1cnn2C` [Compound 109] were, in that order, 475% and 14.1 µM.
The like results for `CCn1ncc2c(N(C)CCOc3ccc(CN)cc3)nc(-c3cccnc3)nc21` [Compound 110] were, in that order, 750% and 7.94 µM.
Consider `CCn1ncc2c(N(C)CCOc3ccc(CNC(=O)CCCCCNC(=O)OC(C)(C)C)cc3)nc(-c3cccnc3)nc21` [Compound 111], for which the maximal response (Emax) under setting [1] was found to be 675%. Further, the half-maximal activity concentration (AC50) under setting [2] came to 0.5 µM.
As for `CCn1ncc2c(N(C)CCOc3ccc(CNC(=O)CCCCCN)cc3)nc(-c3cccnc3)nc21` [Compound 112], the maximal effect (Emax) under setting [1] came to 530%. Besides, the concentration at half-maximal activity (AC50) under setting [2] amounted to 3.55 µM.
Regarding `Cn1ncc2c(N3CCC[C@H](C(=O)Nc4ccccc4)C3)nc(-c3cccnc3)nc21` [Compound 116], under setting [3], the AC50 is 12.6 µM and the Emax was found to be 210%.
The like results for `Cn1ncc2c(N3CCC[C@@H](C(=O)Nc4ccccc4)C3)nc(-c3cccnc3)nc21` [Compound 117] were, in that order, 14.1 µM and 310%.

A word on the Emax: it is the greatest response seen or fitted, relative to the assay's reference. Broadly, the AC50 is the concentration at which the activity in the assay is half-maximal.

For the origin of these results see patent US12291533B2, “Substituted fused pyrimidine compounds and uses thereof” (Northwestern University, priority 2017, dated 2025).
